Experiments:
Format in all cases: cell-based, human
[1] = tested on: OE33 oesophageal cancer cells; test: MTT test, overall cell growth, OE33
Summary of the method: (§1)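 Glioma (Hs683, T98G, U373) and oesophageal (OE21, OE33) lines seeded at 5,000–8,000 cells/well, treated 24 h later with compound at 1×10^−8 to 1×10^−4 M for 72 h at 37 °C, in sestuplicate.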

U373 glioma cells = test: MTT test, overall cell growth, U373; details: 72 hours of incubation
Summary of the method: as §1

U373 cells = test: Cellular imaging (videomicroscopy) of cultured U373 cells: antiproliferative class and global growth ratio; set-up: key to Anti proliferative class / anti-proliferative class-GGR: class I: actually cytostatic for 3 days (<10% of cell death at the 3rd day); class II: cyctostatic but becomes cytotoxic with <10% cell death on the 2nd day, and >20% of cell death on the 3rd day; class III: cytostatic but rapidly becomes cytotoxic with <10% cell death on the 1st day, >20% of cell death on the 2nd day and >50% of cell death on the 3rd day; class IV: cytotoxic (>50% of cell death on the first day); details: for global growth ratio (GGR): GG treated cells/GG control cells, 72 h after drug addition, drug at its IC50 (MTT-test determined); for anti-proliferative class-GGR: Table 4; for Anti proliferative class: cellular imaging of cultured U373 cells over three consecutive days
Summary of the method: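 U373-MG glioma cells seeded at low density, exposed or not to compound […], filmed by videomicroscopy for 72 h, in quadruplicate. Cells counted on first (0 h) and last (72 h) images; GGR = final/initial count, reported as GGR treated/GGR control.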

[2] = tested on: OE21 oesophageal cancer cells; test: MTT test, overall cell growth, OE21
Summary of the method: as §1

[3] = Homo sapiens, OE33, 72 hours of incubation
[4] = Homo sapiens, OE21, 72 hours of incubation

Row | IC50 [1, 3] | IC50 (U373 glioma cells; Homo sapiens, U373 MG) | IC50 [2, 4] | Structure (SMILES) | global growth ratio (GGR) (U373 cells) | anti-proliferative class-GGR (U373 cells) | Anti proliferative class (U373 cells) | IC50 ([1]; 72 hours of incubation) | IC50 (U373 glioma cells) | IC50 ([2]; 72 hours of incubation)
1 | 40 ± 4 µM | 18 ± 2 µM | 28 ± 3 µM | Cc1nccc2c3ccc(OCc4ccccc4)cc3n(Cc3ccccc3)c12 [CV9/JR84, 1-methyl-7-benzyloxy-9-benzyl-β-carboline] | 0.3 | (II) | II |  |  | 
2 | 0.7 ± 0.1 µM | 0.44 ± 0.01 µM | 1.3 ± 0.2 µM | Cc1c2c(cc[n+]1Cc1ccccc1)c1ccc(OCc3ccccc3)cc1n2Cc1ccccc1.[Br-] [CV21/JR95, 1-methyl-2-benzyl-7-benzyloxy-9-benzyl-β-carbolin-2-ium bromide] | 0.4 | (I) (class I: actually cytostatic for 3 days (<10% of cell death at the 3rd day)) | I (class I: actually cytostatic for 3 days (<10% of cell death at the 3rd day)) |  |  | 
3 |  |  |  | Cc1nccc2c1[nH]c1cc(OCc3cccnc3)ccc12 [JR212] | 0.3 | (I) (class I: actually cytostatic for 3 days (<10% of cell death at the 3rd day)) | I (class I: actually cytostatic for 3 days (<10% of cell death at the 3rd day)) | 31 ± 2 µM | 24 ± 1 µM | 28 ± 2 µM
4 |  |  |  | COCCOc1ccc2c(c1)[nH]c1c(C)nccc12 [JR220] | 0.2 | (I) (class I: actually cytostatic for 3 days (<10% of cell death at the 3rd day)) | I (class I: actually cytostatic for 3 days (<10% of cell death at the 3rd day)) | 66 ± 3 µM | 64 ± 4 µM | 53 ± 4 µM

— patent US9168247B2, “Beta carboline derivatives useful in the treatment of proliferative disorders” (FACULTES UNIVERSITAIRES NOTRE DAME DE LA PAIX, priority 2010, dated 2015)
